US20110124569A1, “MACROCYCLIC COMPOUNDS, PROTEASE INHIBITION, AND METHODS OF TREATMENT” (priority 2007, published 2011)
In brackets after ≈: the same amount, converted by molar mass. Like-named read-outs stand apart in the source and are kept apart here.

Tests used:
[1] = target: T1, α-chymotrypsin (bovine pancreas) (Bos taurus, UniProt P00766); experiment: α-Chymotrypsin inhibition assay; format: biochemical; settings: substrate concentration near Km (0.75 mM N-succinyl-Gly-Gly-Phe-p-nitroanilide)
T1 construct: purchased Sigma C4129
Experimental: (§1) The test samples for 1-6 were prepared in DMSO by (log/2)-fold dilutions ranging from 1 mM to 100 pM. All assays were performed in triplicate. Phenylmethylsulfonyl fluoride (PMSF) was used as a positive control in the enzyme assays.
(§2) Inhibitory activity against α-chymotrypsin (bovine pancreas; Sigma, C4129) was determined as follows. A 1-mg/mL solution of chymotrypsin was prepared in assay buffer (50 mM Tris-HCl/100 mM NaCl/1 mM CaCl2, pH 7.8). […] The increase in absorbance was measured for 30 min at intervals of 5 min at 405 nm.

[2] = target: T2, porcine pancreatic elastase (Sus scrofa, UniProt P00772); experiment: Porcine pancreatic elastase inhibition assay; format: biochemical; settings: for IC50: substrate concentration near Km (1.5 mM N-succinyl-Ala-Ala-Ala-p-nitroanilide), read-out: Porcine pancreatic elastase inhibitory activity IC50
T2 construct: purchased EPC EC134
T2 sequence (P00772 27-266): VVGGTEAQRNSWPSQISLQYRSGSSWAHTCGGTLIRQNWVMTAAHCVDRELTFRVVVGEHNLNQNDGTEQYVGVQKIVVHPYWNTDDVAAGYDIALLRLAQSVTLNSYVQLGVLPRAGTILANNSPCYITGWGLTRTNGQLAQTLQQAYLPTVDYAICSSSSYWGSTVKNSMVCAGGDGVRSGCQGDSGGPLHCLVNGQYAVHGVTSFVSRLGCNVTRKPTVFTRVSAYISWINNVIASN
Experimental: as §1
To test the inhibition of porcine pancreatic elastase (Elastase-high purity; EPC, EC134), 75 μg/mL solution of elastase was prepared using Tris-HCl (pH 8.0). […] After preincubation of 165 μL of Tris-HCl (pH 8.0), 10 μL of elastase solution, and 10 μL of test samples in DMSO (5% final concentration) in a microtiter plate at 30° C. for 20 min, 15 μL of substrate solution (1.5 mM final concentration) was added to the mixture. The increase in absorbance was measured for 30 min at intervals of 5 min at 405 nm. Competitive binding was determined by plotting enzyme activity against substrate concentrations in the presence of different inhibitor concentrations (Lineweaver-Burk plot).

[3] = tested on: HT29 colon adenocarcinoma cells; experiment: MTT-based cell viability assessment; settings: highest concentration tested (50 μM)
Experimental: The effects of compounds 5 and 6 on the proliferation of cancer cells was also assessed.

[4] = target: T3, trypsin from porcine pancreas (Sus scrofa, UniProt P00761); experiment: Trypsin inhibition assay; format: biochemical
T3 construct: purchased Sigma T0303
T3 sequence (P00761 9-231): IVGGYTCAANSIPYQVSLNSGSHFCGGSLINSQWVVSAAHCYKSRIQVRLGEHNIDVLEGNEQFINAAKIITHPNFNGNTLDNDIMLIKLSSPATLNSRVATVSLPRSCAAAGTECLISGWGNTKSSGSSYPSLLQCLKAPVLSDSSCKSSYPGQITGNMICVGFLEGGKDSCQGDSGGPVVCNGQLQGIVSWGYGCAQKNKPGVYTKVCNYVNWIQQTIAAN
Experimental: as §1, §2
Inhibitory activity against trypsin was assayed as described above for chymotrypsin, using trypsin from porcine pancreas (Sigma, T0303) and Nα-benzoyl-DL-arginine-4-nitroanilide hydrochloride as the substrate solution.

trypsin = settings: cited from earlier work
elastase = elastase (Sus scrofa, UniProt P00772); settings: literature, cited from earlier work
Chain of elastase (P00772 27-266): as the sequence (P00772 27-266) above

chymotrypsin = settings: literature, Amp-containing compound; cited from earlier work

Compound: C/C=C1\NC(=O)C(NC(=O)C(CCc2ccc(O)cc2)NC(=O)C(C)NC(=O)C(O)CO)C(C)OC(=O)C(C(C)C)NC(=O)C(Cc2ccc(O)cc2)N(C)C(=O)C(Cc2ccccc2)N2C(=O)C(CCC2O)NC1=O (stereo not shown) [Compound 1, Lyngbyastatin 5]
- IC50 [1]: 2.8 ± 0.3 µM
- IC50 [2]: 0.0032 ± 0.002 µM

Compound: C/C=C1\NC(=O)[C@@H](NC(=O)[C@H](CCc2ccc(O)cc2)NC(=O)[C@H](C)NC(=O)[C@H](O)COS(=O)(=O)O)[C@@H](C)OC(=O)[C@H](C(C)C)NC(=O)[C@H](Cc2ccc(O)cc2)N(C)C(=O)[C@H](Cc2ccccc2)N2C(=O)[C@H](CC[C@H]2OC)NC1=O [Compound 2, Lyngbyastatin 6]
- IC50 [1]: 2.5 ± 0.8 µM
- IC50 [2]: 0.0033 ± 0.0008 µM

Compound: C/C=C1\NC(=O)C(NC(=O)C(CCC(N)=O)NC(=O)CCC)C(C)OC(=O)C(C(C)C)NC(=O)C(Cc2ccc(O)cc2)N(C)C(=O)C(Cc2ccccc2)N2C(=O)C(CCC2O)NC1=O (stereo not shown) [Compound 4, somamide B, reference compound]
- IC50 [1]: 4.2 ± 0.5 µM
- IC50 [2]: 0.0095 ± 0.0052 µM

Compound: CC(=O)N1CCC[C@H]1C(=O)N[C@H](C(=O)N[C@@H]1C(=O)N[C@@H](CC(C)C)C(=O)NC2CC[C@@H](O)N(C2=O)[C@@H](Cc2ccccc2)C(=O)N(C)C(Cc2ccc(O)cc2)C(=O)N[C@@H](C(C)C)C(=O)O[C@@H]1C)[C@@H](C)O (stereo partly shown) [Compound 5, Kempopeptin A]
- elastase inhibition and selectivity over chymotrypsin [2]: inhibited elastase with a slight selectivity over chymotrypsin
- effect on growth of HT29 cells [3]: did not significantly affect the growth

Compound: CCCC(=O)N[C@H](C(=O)N[C@@H]1C(=O)N[C@@H](CCCCN)C(=O)N[C@H]2CC[C@@H](O)N(C2=O)[C@@H]([C@@H](C)CC)C(=O)N(C)[C@@H](Cc2ccc(OC)c(Br)c2)C(=O)N[C@@H](C(C)C)C(=O)O[C@@H]1C)C(C)C [Compound 6, Kempopeptin B]
- trypsin inhibition, selectivity versus elastase and chymotrypsin [4]: selective in vitro trypsin inhibition
- trypsin inhibition, selectivity versus elastase and chymotrypsin ([4]; listed as kempopeptin B): inhibited only trypsin activity
- effect on growth of HT29 cells [3]: did not significantly affect the growth

Compound: C/C=C1\NC(=O)C(NC(=O)C(CCc2ccc(O)cc2)NC(=O)C(C)NC(=O)C(O)COS(=O)(=O)O)C(C)OC(=O)C(C(C)C)NC(=O)C(Cc2ccc(O)cc2)N(C)C(=O)C(Cc2ccccc2)N2C(=O)C(CCC2O)NC1=O (stereo not shown) [lyngbyastatin 4]
- trypsin activity upon treatment, previous findings (trypsin; previous publication (J. Nat. Prod. 2007, 70, 124-127)): unaffected

Compound: CCCCCC(=O)N[C@@H](CC(=O)O)C(=O)N[C@@H]1C(=O)N[C@@H](CCCCN)C(=O)N[C@H]2CC[C@@H](O)N(C2=O)[C@@H]([C@@H](C)CC)C(=O)N(C)[C@@H](Cc2ccc(O)cc2)C(=O)N[C@@H](C(C)C)C(=O)O[C@@H]1C [micropeptin SD944]
- IC50 against trypsin (trypsin; literature value): 8.0 µg/mL (≈ 8.46 µM)

Compound: oscillapeptin C
- elastase inhibition (elastase; Amp-containing compound): does not inhibit elastase
- chymotrypsin inhibition (chymotrypsin): still inhibits chymotrypsin

Compound: planktopeptin BL843
- protease-inhibitory activity compared with the other planktopeptins (elastase): one order of magnitude lower
